In PMC6788984, “High-potency ligands for DREADD imaging and activation in rodents and monkeys” (Nature Communications, 2019):
Where “and” joins values, the source holds several entries; their conditions need not be identical. Identical values can stand only once.

Columns and labels:
[1] = tested on: WT littermates; assay: Locomotor activity in WT littermate rats; type: in vivo, rat
Description: Tyrosine hydroxylase (TH):Cre rats (n = 9; founder, K. Deisseroth lab) or WT littermates (n = 9) were bilaterally injected with AAV2 hSyn-DIO-hM3Dq-mCherry (1ul/hemisphere, Addgene), and allowed to recover for 2 + weeks. Following handling, they were habituated to a Med Associates locomotor testing box (43 × 43 × 30.5 cm) for 2 h on 2 days, then repeatedly tested after separate day doses of DREADD agonists and vehicle. […]. Vehicle was administered on 2 separate days, and average locomotion was used for comparison with DREADD agonists. Cohort 2 underwent the same procedures, but with a 4 h testing session, and the following IP injections: vehicle (x2), JHU37152 (0.01–0.3 mg kg^−1), JHU37160 (0.01–0.3 mg kg^−1). All drugs were dissolved in 5% DMSO in saline, and injected 1 ml kg^−1. Following all tests, rats were transcardially perfused, brains sectioned coronally at 40 µm, and VTA-specific expression confirmed using endogenous mCherry reporter expression, which co-localized nearly exclusively with TH immunoreactivity.

[2] = molecular target: T1, cortical hM4Di (Homo sapiens, UniProt P08173, A203G/Y113C); assay: [11C]clozapine PET DREADD occupancy in rats; conditions: rat, read-out: occupancy of cortical hM4Di
T1 sequence (P08173 1-479 Y113C/A203G): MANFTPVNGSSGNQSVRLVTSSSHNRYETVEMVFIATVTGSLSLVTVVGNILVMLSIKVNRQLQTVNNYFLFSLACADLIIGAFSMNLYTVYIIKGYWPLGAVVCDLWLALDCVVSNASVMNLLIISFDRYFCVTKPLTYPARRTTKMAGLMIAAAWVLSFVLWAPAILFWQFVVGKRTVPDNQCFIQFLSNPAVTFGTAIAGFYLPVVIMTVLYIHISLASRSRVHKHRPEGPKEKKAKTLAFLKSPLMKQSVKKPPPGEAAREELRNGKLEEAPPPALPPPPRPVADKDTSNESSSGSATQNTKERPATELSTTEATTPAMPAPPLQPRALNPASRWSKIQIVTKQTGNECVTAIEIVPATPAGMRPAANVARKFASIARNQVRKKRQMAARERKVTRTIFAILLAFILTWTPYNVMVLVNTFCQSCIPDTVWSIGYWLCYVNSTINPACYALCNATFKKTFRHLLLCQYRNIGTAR
Description: (§1) Animals were anesthetized with isoflurane or a mix of ketamine/xylazine and prepped on a stereotaxic apparatus (Kopf, Germany). […] When indicated, animals were pretreated with vehicle or the indicated drug 10 min before the injection of the PET radiotracer. Total acquisition time was 60 min.
In all cases, the PET data were reconstructed and corrected for dead-time and radioactive decay. All qualitative and quantitative assessments of PET images were performed using the PMOD software environment (PMOD Technologies, Zurich Switzerland). Binding potential BPND (a relative measure of specific binding) was calculated using a reference tissue model using the cerebellum as a reference tissue in rodents. In macaques, the kinetic data were fitted to a two-tissue compartment model and the concentration of parent in plasma was used as an input function, then the volume of distribution ratios compared to cerebellum were calculated to establish BPND. […] Receptor occupancy was calculated using the formula: occupancy = (BPND^0 − BPND^Drug)/BPND^0 × 100, where BPND^0 is the binding potential of the baseline condition and BPND^Drug the binding potential when the animals were pretreated with the drug.

[3] = molecular target: T2, hM4Di (Homo sapiens, UniProt P08173, A203G/Y113C); assay: In vivo electrophysiology: ChrimsonR light-evoked responses in LA of mice expressing hM4Di in MGM terminals; set-up: 026219; host or cells: mouse brain, dopamine D1 receptor-expressing neurons (transgene); species or system mouse; conditions: 0.1 mg kg-1 IP
T2 sequence (P08173 1-479 Y113C/A203G): T1 sequence (P08173 1-479 Y113C/A203G)
Description: Mice were purchased from Janvier Labs and stored in grouped cages (maximun 4 per cage) with ad libitum access to food and water, and in a 12 h light/dark cycle (lights on at 7:00 a.m.). All the experiments were performed in accordance to the national Danish law for the use of laboratory animals and approved by local authorities.
For AAV injection, mice were anaesthetized with Isoflurane and placed in a stereotaxic holder (Narishige, Japan). A trephine hole was drilled above the MGM (from bregma, AP 3.1 mm, ML 1.8 mm). Several injections of a mixture of ssAAV-8/2-hSyn1-hM4D(Gi)_mCherry-WPRE-hGHp(A) and ssAAV-8/2-hSyn1-oChIEF_ChrimsonR_mCitrine-WPRE-SV40pA (in a 1:4 viral particle ratio) were performed sequentially in different locations (AP 3.05 mm, ML 1.75 mm, DV 3.2 and 3.5 mm; second location AP 3.2 mm, ML 1.85 mm, DV 3.3 and 3.6 mm) so that a total of 4 injections of 0.5 µL were made to distribute the virus evenly through the desired location. Injections were made using a pressurized picospritzer and a pulled glass pipette. After viral injection, animals were kept for 4 weeks to ensure maximum virus expression through axon terminals.
For recording experiments, animals were anesthetized with […] urethane (i.p.), injected with 0.1 ml lidocaine (s.c.) in the incision points, and placed in a stereotaxic holder (Narishige, Japan). A trephine was drilled above the LA (from bregma, AP 1.5 mm, ML 3.1 mm) and the 32 channel opto-electrode was lowered whilst stimulating until a maximum response was located (DV 4 ± 0.2 mm). Body temperature was maintained constant at 37 °C through a feedback-regulated heating pad. Before recording, tissue was left for 10–20 mins for accommodation. Input–output test curves were recorded for both intensity and pulse length 30 min before and 1 h after drug injections using 1 ms-long pulses at 0.33 Hz (450 nm, 110 mA light intensity, ~14 mW, see Supplementary Fig. 10 Panel A). […]

[4] = molecular target: hM3Dq (Homo sapiens, UniProt P20309, A239G/Y149C); assay: [11C]clozapine PET DREADD occupancy in AAV-DREADD mice, hM3Dq; conditions: 0.1 mg kg-1 IP, individual values, listed as J52
Chain of hM3Dq (P20309 whole entry Y149C/A239G): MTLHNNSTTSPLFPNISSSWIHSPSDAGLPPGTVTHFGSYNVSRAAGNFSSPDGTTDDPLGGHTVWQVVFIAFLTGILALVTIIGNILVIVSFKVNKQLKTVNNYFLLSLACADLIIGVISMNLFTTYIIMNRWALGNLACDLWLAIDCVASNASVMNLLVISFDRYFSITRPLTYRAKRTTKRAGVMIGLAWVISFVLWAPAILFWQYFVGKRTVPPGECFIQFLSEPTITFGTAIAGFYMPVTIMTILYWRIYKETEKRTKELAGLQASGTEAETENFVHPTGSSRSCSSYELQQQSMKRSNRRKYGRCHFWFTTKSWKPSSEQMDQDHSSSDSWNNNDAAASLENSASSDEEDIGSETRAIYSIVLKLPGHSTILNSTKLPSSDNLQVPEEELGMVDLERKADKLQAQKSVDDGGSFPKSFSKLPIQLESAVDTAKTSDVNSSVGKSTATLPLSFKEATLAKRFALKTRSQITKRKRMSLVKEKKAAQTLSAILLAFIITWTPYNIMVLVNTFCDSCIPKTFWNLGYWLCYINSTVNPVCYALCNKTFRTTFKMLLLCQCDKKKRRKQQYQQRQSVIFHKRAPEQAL
Description: as §1
(§2) In all cases, the PET data were reconstructed and corrected for dead-time and radioactive decay. All qualitative and quantitative assessments of PET images were performed using the PMOD software environment (PMOD Technologies, Zurich Switzerland). Binding potential BPND (a relative measure of specific binding) was calculated using a reference tissue model using the cerebellum as a reference tissue in rodents. In macaques, the kinetic data were fitted to a two-tissue compartment model and the concentration of parent in plasma was used as an input function, then the volume of distribution ratios compared to cerebellum were calculated to establish BPND. In all cases, the dynamic PET images were coregistered to MRI templates and time-activity curves were generated using predefined volumes of interest (macaques) or manually drawn in rodents and the described analyses were performed. Receptor occupancy was calculated using the formula: occupancy = (BPND^0 − BPND^Drug)/BPND^0 × 100, where BPND^0 is the binding potential of the baseline condition and BPND^Drug the binding potential when the animals were pretreated with the drug.

[5] = molecular target: T2, hM4Di; assay: [11C]clozapine PET DREADD occupancy in AAV-DREADD mice, hM4Di; conditions: 0.1 mg kg-1 IP, individual values, listed as J52
Description: as §1, §2

## CCN1CCN(C2=Nc3cc(Cl)ccc3Nc3c(F)cccc32)CC1 [JHU37160, 8-Chloro-11-(4-ethylpiperazin-1-yl)-4-fluoro-5H-dibenzo[b,e][1,4]diazepine]
[1]; dose 0.01, listed as J60
  Locomotor activity, individual animals (Figure 3 Panel F): 108.174 and 103.461 and 68.1848 and 77.4203 and 88.3922 and 59.3537 and 61.4668
[1]; dose 0.1, listed as J60
  Locomotor activity, individual animals (Figure 3 Panel F): 208.38 and 83.765 and 47.1951 and 156.41 and 190.369 and 42.7803 and 81.1685
[2]
  receptor occupancy at 0.1 mg/kg: ~80%
[3]; 30 min after injection
  light-evoked response, % of baseline (maximal inhibition): 19 ± 2 % of baseline
[3]; ~10 min
  inhibition of ChrimsonR-induced terminal activation: 60%
  light-evoked response, % of baseline: 36 ± 9 % of baseline

## CCN1CCN(C2=Nc3cc(Cl)ccc3Nc3cccc(F)c32)CC1 [JHU37152, 8-Chloro-11-(4-ethylpiperazin-1-yl)-1-fluoro-5H-dibenzo[b,e][1,4]diazepine]
[4]
  displacement of in vivo [11C]clozapine binding, hM3Dq: 25.1963 and 16.746 and 26.3837
[5]
  displacement of in vivo [11C]clozapine binding, hM4Di: -5.675 and 34.4851 and 23.8214
